# “Also recorded” adds a separate entry of the source.
# Biological target: gp96 (Homo sapiens, UniProt P14625)
# Test: ATPase activity of gp96 (ATPase assay kit)
# Assay type: biochemical
# Settings: 0 vs. 100 μM
# Procedure: FIG. 22 represents the effect of point mutations on the ATPase activity of gp96. (a) The effect of gp96 point mutations on its ATPase activity was examined using ATPase assay kit (Innova Biosciences, Cambridge, UK). One unit is the amount of enzyme that catalyzes the reaction of 1 μmol of substrate per minute. The enzymatic activity was calculated according to manufacturer's instruction.
# FIG. 23 represents the effect of GPM1 on the ATPase activity gp96. (a) The dose-dependent effect of GPM1 on the ATPase activity.
# Chain of gp96 (P14625 22-803): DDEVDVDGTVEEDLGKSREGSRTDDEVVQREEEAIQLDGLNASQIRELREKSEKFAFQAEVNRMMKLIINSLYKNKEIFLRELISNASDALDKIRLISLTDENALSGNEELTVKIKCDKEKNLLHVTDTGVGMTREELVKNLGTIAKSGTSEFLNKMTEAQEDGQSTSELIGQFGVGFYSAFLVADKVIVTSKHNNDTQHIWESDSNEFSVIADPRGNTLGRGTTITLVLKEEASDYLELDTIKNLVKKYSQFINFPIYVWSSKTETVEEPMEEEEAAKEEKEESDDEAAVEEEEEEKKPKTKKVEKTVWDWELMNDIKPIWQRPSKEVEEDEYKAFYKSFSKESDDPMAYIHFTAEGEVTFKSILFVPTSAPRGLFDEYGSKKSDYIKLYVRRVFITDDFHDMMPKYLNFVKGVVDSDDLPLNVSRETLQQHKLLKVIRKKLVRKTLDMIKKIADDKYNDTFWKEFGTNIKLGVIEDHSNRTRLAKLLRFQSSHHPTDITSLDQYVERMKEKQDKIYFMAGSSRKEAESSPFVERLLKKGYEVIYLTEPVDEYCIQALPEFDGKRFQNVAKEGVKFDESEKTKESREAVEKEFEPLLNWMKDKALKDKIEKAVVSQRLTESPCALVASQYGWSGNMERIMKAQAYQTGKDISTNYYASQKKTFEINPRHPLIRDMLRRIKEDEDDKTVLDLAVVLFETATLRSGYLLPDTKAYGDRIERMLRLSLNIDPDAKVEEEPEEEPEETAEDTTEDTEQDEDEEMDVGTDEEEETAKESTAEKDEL
smiles,measurement,value
"COC(=O)[C@@H](Oc1nc(OC)cc(OC)n1)C(C)C [GPM1, (S)-methyl 2-(4,6-dimethoxypyrimidin-2-yloxy)-3-methylbutanoate]",effect on the gp96 ATPase activity,little effect; also recorded: did not affect
